In patent US8586747B2, “3,3-dimethyl tetrahydroquinoline derivatives” (Hoffmann-La Roche Inc., priority 2010, dated 2013):

Test system: AMP-activated protein kinase (AMPK)
Experiment: ADP Quest assay for AMPK activators
Assay type: biochemical
Set-up: key: fold AMPK activation with vs without activator at 30 µM
Conditions: fold of AMPK activation to phosphorylate SAMS peptide without and with an activator at the concentration of 30 µM
Summary of the method: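 E30, the fold increase in SAMS peptide phosphorylation at 30 µM compound relative to no activator, is derived from kinetic fluorescent detection of ADP (ex 530, em 590 nm). AMPK starts the ATP-containing reaction at room temperature; compounds span […] by 2-fold steps, AMP serves as reference.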

| SMILES | E30 |
| --- | --- |
| Cc1ccc(N2CCN(c3cccc(C4Nc5ccc(C(=O)NS(=O)(=O)C6CC6)cc5CC4(C)C)c3)CC2)c(C)c1 (stereo not shown) [Example 91, Cyclopropanesulfonic acid (2-{3-[4-(2,4-dimethyl-phenyl)-piperazin-1-yl]-phenyl}-3,3-dimethyl-1,2,3,4-tetrahydro-quinoline-6-carbonyl)-amide] | 1.31 |
| Cc1ccccc1N1CCN(c2cccc(C3Nc4c(cc(F)cc4C(=O)O)CC3(C)C)c2)CC1 (stereo not shown) [Example 92, 6-Fluoro-3,3-dimethyl-2-[3-(4-o-tolyl-piperazin-1-yl)-phenyl]-1,2,3,4-tetrahydro-quinoline-8-carboxylic acid] | 1.23 |
| CC1(C)Cc2cc(Cl)cc(C(=O)NS(C)(=O)=O)c2NC1c1cccc(N2CCN(c3ccc(Cl)cc3)CC2)c1 (stereo not shown) [Example 93, N-(6-Chloro-2-{3-[4-(4-chloro-phenyl)-piperazin-1-yl]-phenyl}-3,3-dimethyl-1,2,3,4-tetrahydro-quinoline-8-carbonyl)-methanesulfonamide] | 1.32 |
| Cc1ccccc1N1CCN(c2cccc(C3Nc4c(cccc4C(=O)O)CC3(C)C)c2)CC1 (stereo not shown) [Example 94, 3,3-Dimethyl-2-[3-(4-o-tolyl-piperazin-1-yl)-phenyl]-1,2,3,4-tetrahydro-quinoline-8-carboxylic acid] | 1.33 |
| CC1(C)Cc2c(ccc(Cl)c2C(=O)O)NC1c1cccc(N2CCOCC2)c1 (stereo not shown) [Example 95, 6-Chloro-3,3-dimethyl-2-(3-morpholin-4-yl-phenyl)-1,2,3,4-tetrahydro-quinoline-5-carboxylic acid] | 1.56 |
| CN1CCN(c2cccc(C3Nc4ccc(C(=O)NS(C)(=O)=O)cc4CC3(C)C)c2)CC1 (stereo not shown) [Example 96, N-{3,3-Dimethyl-2-[3-(4-methyl-piperazin-1-yl)-phenyl]-1,2,3,4-tetrahydro-quinoline-6-carbonyl}-methanesulfonamide] | 1.5 |
| CC1(C)Cc2cc(C(=O)NS(=O)(=O)C3CC3)ccc2NC1c1cccc(N2CCNCC2)c1 (stereo not shown) [Example 97, Cyclopropanesulfonic acid [3,3-dimethyl-2-(3-piperazin-1-yl-phenyl)-1,2,3,4-tetrahydro-quinoline-6-carbonyl]-amide] | 1.46 |
| CCS(=O)(=O)NC(=O)c1ccc2c(c1)CC(C)(C)C(c1cccc(N3CCOCC3)c1)N2 (stereo not shown) [Example 98, Ethanesulfonic acid [3,3-dimethyl-2-(3-morpholin-4-yl-phenyl)-1,2,3,4-tetrahydro-quinoline-6-carbonyl]-amide] | 1.44 |
| CN1CCN(c2cccc(C3Nc4ccc(C(=O)O)cc4CC3(C)C)c2)CC1 (stereo not shown) [Example 99, 3,3-Dimethyl-2-[3-(4-methyl-piperazin-1-yl)-phenyl]-1,2,3,4-tetrahydro-quinoline-6-carboxylic acid] | 1.42 |
| CC1(C)Cc2cc(Cl)cc(C(=O)O)c2NC1c1cccc(N2CCOCC2)c1 (stereo not shown) [Example 100, 6-Chloro-3,3-dimethyl-2-(3-morpholin-4-yl-phenyl)-1,2,3,4-tetrahydro-quinoline-8-carboxylic acid] | 1.4 |
| CC1(C)Cc2cc(Cl)cc(C(=O)NS(=O)(=O)C3CC3)c2NC1c1cccc(N2CCOCC2)c1 (stereo not shown) [Example 101, Cyclopropanesulfonic acid [6-chloro-3,3-dimethyl-2-(3-morpholin-4-yl-phenyl)-1,2,3,4-tetrahydro-quinoline-8-carbonyl]-amide] | 1.4 |
| CC1(C)Cc2cc(C(=O)O)ccc2NC1c1cccc(N2CCNCC2)c1 (stereo not shown) [Example 102, 3,3-Dimethyl-2-(3-piperazin-1-yl-phenyl)-1,2,3,4-tetrahydro-quinoline-6-carboxylic acid] | 1.4 |
| CC1(C)Cc2cc(C(=O)NS(C)(=O)=O)ccc2NC1c1cccc(N2CCNCC2)c1 (stereo not shown) [Example 103, N-[3,3-Dimethyl-2-(3-piperazin-1-yl-phenyl)-1,2,3,4-tetrahydro-quinoline-6-carbonyl]-methanesulfonamide] | 1.37 |
| CC1CN(c2cccc(C3Nc4ccc(C(=O)NS(=O)(=O)C5CC5)cc4CC3(C)C)c2)CC(C)O1 (stereo not shown) [Example 105, Cyclopropanesulfonic acid {2-[3-(2,6-dimethyl-morpholin-4-yl)-phenyl]-3,3-dimethyl-1,2,3,4-tetrahydro-quinoline-6-carbonyl}-amide] | 1.35 |
| CC1CN(c2cccc(C3Nc4ccc(C(=O)O)cc4CC3(C)C)c2)CC(C)O1 (stereo not shown) [Example 106, 2-[3-(2,6-Dimethyl-morpholin-4-yl)-phenyl]-3,3-dimethyl-1,2,3,4-tetrahydro-quinoline-6-carboxylic acid] | 1.3 |
| COc1cccc(C2Nc3ccc(C(=O)N4CCC(C)(O)C4)cc3CC2(C)C)c1 (stereo not shown) [Example 107, (3-Hydroxy-3-methyl-pyrrolidin-1-yl)-[2-(3-methoxy-phenyl)-3,3-dimethyl-1,2,3,4-tetrahydro-quinolin-6-yl]-methanone] | 1.29 |
| CC1(C)Cc2cc(C(=O)O)ccc2NC1c1cccnc1 (stereo not shown) [Example 108, 3,3-Dimethyl-2-pyridin-3-yl-1,2,3,4-tetrahydro-quinoline-6-carboxylic Acid] | 1.29 |

| SMILES | E30 |
| --- | --- |
| CC1(C)Cc2cc(C(=O)O)ccc2NC1c1cccc(-c2ccc(Cl)cc2)c1 (stereo not shown) [Example 109, 2-(4′-Chloro-biphenyl-3-yl)-3,3-dimethyl-1,2,3,4-tetrahydro-quinoline-6-carboxylic acid] | 1.24 |
| CC1(C)Cc2cc(C(=O)NS(C)(=O)=O)ccc2NC1c1cccc(N2CCOC2=O)c1 (stereo not shown) [Example 110, N-{3,3-Dimethyl-2-[3-(2-oxo-oxazolidin-3-yl)-phenyl]-1,2,3,4-tetrahydro-quinoline-6-carbonyl}-methanesulfonamide] | 1.24 |
| CC1(C)Cc2c(C(=O)O)ccc(Cl)c2NC1c1cccc(N2CCOCC2)c1 (stereo not shown) [Example 111, 8-Chloro-3,3-dimethyl-2-(3-morpholin-4-yl-phenyl)-1,2,3,4-tetrahydro-quinoline-5-carboxylic acid] | 1.24 |
| CC1(C)Cc2cc(C(=O)O)cc(Cl)c2NC1c1cccc(N2CCOCC2)c1 (stereo not shown) [Example 112, 8-Chloro-3,3-dimethyl-2-(3-morpholin-4-yl-phenyl)-1,2,3,4-tetrahydro-quinoline-6-carboxylic acid] | 1.22 |
| CC1(C)Cc2cc(C(=O)O)ccc2NC1c1ccc(F)c(Cl)c1 (stereo not shown) [Example 113, 2-(3-Chloro-4-fluoro-phenyl)-3,3-dimethyl-1,2,3,4-tetrahydro-quinoline-6-carboxylic acid] | 1.21 |
| CC1(C)Cc2cc(C(=O)NS(=O)(=O)C3CC3)ccc2NC1c1cncc(N2CCOCC2)c1 (stereo not shown) [Example 114, Cyclopropanesulfonic acid [3,3-dimethyl-2-(5-morpholin-4-yl-pyridin-3-yl)-1,2,3,4-tetrahydro-quinoline-6-carbonyl]-amide] | 1.21 |
| CC1(C)Cc2cc(C(=O)NS(C)(=O)=O)cc(Cl)c2NC1c1cccc(N2CCOCC2)c1 (stereo not shown) [Example 115, N-[8-Chloro-3,3-dimethyl-2-(3-morpholin-4-yl-phenyl)-1,2,3,4-tetrahydro-quinoline-6-carbonyl]-methanesulfonamide] | 1.2 |
| CC1(C)Cc2cc(C(=O)NS(=O)(=O)C3CC3)ccc2NC1c1cccc(N2CCOC2=O)c1 (stereo not shown) [Example 116, Cyclopropanesulfonic acid {3,3-dimethyl-2-[3-(2-oxo-oxazolidin-3-yl)-phenyl]-1,2,3,4-tetrahydro-quinoline-6-carbonyl}-amide] | 1.2 |
| CC1(C)Cc2c(ccc(F)c2C(=O)NS(=O)(=O)C2CC2)NC1c1cccc(N2CCOCC2)c1 (stereo not shown) [Example 117, Cyclopropanesulfonic acid [6-fluoro-3,3-dimethyl-2-(3-morpholin-4-yl-phenyl)-1,2,3,4-tetrahydro-quinoline-5-carbonyl]-amide] | 1.7 |
| CC1(C)Cc2c(ccc(F)c2C(=O)NS(C)(=O)=O)NC1c1cccc(N2CCOCC2)c1 (stereo not shown) [Example 118, N-[6-Fluoro-3,3-dimethyl-2-(3-morpholin-4-yl-phenyl)-1,2,3,4-tetrahydro-quinoline-5-carbonyl]-methanesulfonamide] | 1.64 |
| CNCCN(C)c1cccc(C2Nc3ccc(C(=O)O)cc3CC2(C)C)c1 (stereo not shown) [Example 120, 3,3-Dimethyl-2-{3-[methyl-(2-methylamino-ethyl)-amino]-phenyl}-1,2,3,4-tetrahydro-quinoline-6-carboxylic acid] | 1.5 |
| CC1(C)Cc2c(ccc(F)c2C(=O)O)NC1c1cccc(N2CCOCC2)c1 (stereo not shown) [Example 121, 6-Fluoro-3,3-dimethyl-2-(3-morpholin-4-yl-phenyl)-1,2,3,4-tetrahydro-quinoline-5-carboxylic acid] | 1.42 |
| CC(C)[C@H]1COC(=O)N1c1cccc(C2Nc3ccc(C(=O)O)cc3CC2(C)C)c1 (stereo partly shown) [Example 122] | 1.39 |
| CC(C)[C@@H]1COC(=O)N1c1cccc(C2Nc3ccc(C(=O)NS(C)(=O)=O)cc3CC2(C)C)c1 (stereo partly drawn) [Example 123, N-{2-[3-((R)-4-Isopropyl-2-oxo-oxazolidin-3-yl)-phenyl]-3,3-dimethyl-1,2,3,4-tetrahydro-quinoline-6-carbonyl}-methanesulfonamide] | 1.36 |
| CC(C)[C@@H]1COC(=O)N1c1cccc(C2Nc3ccc(C(=O)NS(=O)(=O)C4CC4)cc3CC2(C)C)c1 (stereo partly drawn) [Example 125, Cyclopropanesulfonic acid {2-[3-((R)-4-isopropyl-2-oxo-oxazolidin-3-yl)-phenyl]-3,3-dimethyl-1,2,3,4-tetrahydro-quinoline-6-carbonyl}-amide] | 1.33 |
| CN1CCN(c2cccc(C3Nc4ccc(C(=O)O)cc4CC3(C)C)c2)C(=O)C1=O (stereo not shown) [Example 126, 3,3-Dimethyl-2-[3-(4-methyl-2,3-dioxo-piperazin-1-yl)-phenyl]-1,2,3,4-tetrahydro-quinoline-6-carboxylic acid] | 1.28 |
| CC1(C)Cc2cc(C(=O)NS(C)(=O)=O)ccc2NC1c1cccc(N2C(=O)OC[C@H]2Cc2ccccc2)c1 (stereo partly drawn) [Example 128, N-{2-[3-((R)4-Benzyl-2-oxo-oxazolidin-3-yl)-phenyl]-3,3-dimethyl-1,2,3,4-tetrahydro-quinoline-6-carbonyl}-methanesulfonamide] | 1.26 |
